Where no end group is shown, it is not given here.
Key:
[1] = system: retrogradely traced bladder thoracolumbar (TL) DRG neurons; experiment: Patch clamp recordings from retrogradely traced bladder DRG neurons; assay type: in vivo, C57/BL6 mice; settings: TL DRG neurons from CVH mice, once daily oral gavage for 2 weeks, vs vehicle
Procedure: Laparotomy was performed on anaesthetized (2-3% isofluorane/0.3 L/min O2) mice. […]; ThermoFisher product nr. C22842 (former LifeTechnologies)) was used for subserosal injection (2-3 ul per injection) in descending colon or dorsal and lateral bladder using a 30G Hamilton needle. Incision was closed with Prolene 6/0 suture (Johnson&Johnson product nr. 8636G). All mice were given 100 ul of buprenorphine (1:12) and Baytril (1:20) for post-operative care and left for 4 days before humanely killed for DRG cell culture.
Recordings were made from healthy and CVH mice. CVH mice received chronic administration of either vehicle or linaclotide (3 μg/kg/day) for a total duration of 2 weeks. Mice were euthanized via CO2 inhalation and DRGs from thoracolumbar (T10-L1) and lumbosacral (L6-S1) regions removed and digested with 3 mg mL−1 collagenase II (Gibco) and 4 mg mL−1 dispase (Gibco) for 30 min at 37° C., followed by 3 mg mL−1 collagenase II only for 10 min at 37° C. […]
Recordings were made similarly to those we have described previously (Brierley et al., 2011, ibid). […] Signals were amplified by using an Axopatch 200A amplifier, digitized with a Digidata 1322A and recorded using pCLAMP 9 software (Molecular Devices, Sunnyvale, Calif., USA). […] In current clamp studies a series of depolarizing pulses (500 ms, 10 pA step) were applied from a holding potential ([…]) and the rheobase (or amount of current (pA) required for action potential generation) determined. The number of action potentials at rheobase and 2× rheobase was also determined and the resting membrane potential was noted. […]
Action potentials were recorded in current clamp mode and the rheobase, or the amount of injected current (pA) required to elicit an action potential determined. The numbers of action potentials at rheobase and 2× rheobase were also recorded as well as noting the resting membrane potential. Data were analyzed using Prism 5 software (GraphPad Software, San Diego, Calif., USA) where appropriate, un-paired t-tests or one-way analysis of variance (ANOVA) followed by posthoc tests. […]

[2] = system: bladder afferents of CVH mice; experiment: Ex-vivo afferent recordings from bladder pelvic afferents during ramp distension; assay type: in vivo, C57/BL6 mice; settings: vs vehicle
Procedure: (§1) Male C57 BL/6 mice were used in all experiments. Colitis was induced by administration of TNBS as described previously (Brierley et al., (2011) J. Physiol, 15: 3575-3593, incorporated herein by reference in its entirety). Briefly, 13-week-old mice were administered an intra-colonic enema of 0.1 mL TNBS (130 μg/mL in 30% EtOH) via a polyethylene catheter inserted 3 cm from the anus of isoflurane anaesthetized mice. Mice were then individually housed and observed daily for changes in body weight, physical appearance and behavior. Histological examination of mucosal architecture, cellular infiltrate, crypt abscesses, and goblet cell depletion confirmed TNBS-induced significant damage by day 3-post treatment, largely recovered by day 7 and fully recovered at the day 28-time point (Brierley et al., (2008) Gastroenterology, 134: 2059-69, incorporated herein by reference). High-threshold nociceptors from mice at the 28 day time point display significant mechanical hypersensitivity, lower mechanical activation thresholds and display hyperalgesia and allodynia. As such, they are therefore termed ‘chronic visceral hypersensitivity’ (CVH) mice.
Pelvic bladder afferents are classified by their ability to respond to urinary bladder ramp distension. During bladder distension there is an increase in intravesical pressure and a corresponding increase in the afferent neuron activity. The mechanosensitivity of these afferents was tested in bladder preparations from healthy and CVH mice as well as CVH mice that received either a 2 week treatment of once daily oral gavage of vehicle or of linaclotide (3 μg/kg/day) by ramp distension to a final intravesical pressure of 30 mmHg.
Recordings were made from healthy and CVH mice, which had been chronically administered either vehicle or linaclotide (3 μg/kg/day) for a total duration to 2 weeks, and which were euthanized via CO2 inhalation and cervical dislocation. The animal was cut in two at the level of L2, removing vascular connections via the aorta and vena cava, yet ensuring the kidneys and ureters remained intact. […]

[3] = human volunteers; cited from earlier work
[4] = system: bladder afferents and detrusor smooth muscle of CVH mice; experiment: Exogenous chemical stimulation of bladder afferents and bladder muscle (carbachol, αβMe-ATP, capsaicin); assay type: in vivo, C57/BL6 mice; settings: vs vehicle
Procedure: as §1
The chemosensitivity of bladder afferents was also tested following isolation of pelvic afferents and catheterisation of the bladder described above. Following an equilibration period, when bladder afferent responses to ramp distension are stable, the bladder was distended to a physiological pressure of 6 mmHg above baseline. At this point, the saline perfusion is stopped but the outflow tap remains closed as to maintain the volume in the bladder. The bladder is maintained in this state to accommodate the increase in volume for 45 minutes whilst the baseline intravesical pressure and afferent firing stabilize.
Following the equilibration period, the bath perfusion is briefly turned off and a bolus dose of agonist is applied. Carbachol (1 μM), αβMe-ATP (30 μM), and capsaicin (10 μM) were applied in series with a 1 hr washout period between each dose.
Chemosensitive responses were measured as the number of action potentials crossing a pre-set threshold at a given time following agonist administration. The intravesical pressure was determined as the change from baseline pressure at a given time following agonist administration.
Data are expressed as mean with the SEM, and n is the number of animals. Data were analyzed using unpaired t-test to determine significance when comparing single points or a two-way analysis of variance (ANOVA) when comparing between experimental groups throughout a ramp distension or exogenous agonist protocol. Differences were considered significant at P<0.05. […] Muscle compliance is calculated by plotting intravesical pressure against intravesical volume, which is in turn determined from the time taken to distend to a particular pressure.
Whole nerve multifiber afferent nerve activity was quantified using the spike 2 software, which counted the number of action potentials crossing a pre-set threshold. Data are expressed as mean±SEM. n indicates the number of individual animals. Data were analyzed using Prism 5 software (GraphPad Software, San Diego, Calif., USA) where appropriate, un-paired t-tests were used, or two-way analysis of variance (ANOVA) followed by posthoc tests. Differences were considered significant at a level of *P<0.05, **P<0.01 and ***P<0.001.

CCEYCCNPACTGCY (cysteine pairing not given here) [linaclotide]
resting membrane potential [1]: no effect | number of action potentials at 2× rheobase ([1]; p=0.02): significantly decreases | rheobase ([1]; p=0.02): significantly increases | afferent nerve activity over the time course of ramp distension ([2]; once daily oral gavage 3 μg/kg/day for 2 weeks, FIG. 2A, P≤0.001): significant decrease | peak afferent response to distension ([2]; once daily oral gavage 3 μg/kg/day for 2 weeks, FIG. 2B, P≤0.05): significant decrease | bladder compliance ([2]; once daily oral gavage for 2 weeks, FIG. 2C): no change | oral dose found in feces [3]: about 5% | bladder afferent response to capsaicin ([4]; capsaicin 10 μM, once daily oral gavage for 2 weeks, p≤0.01): significantly reduced | bladder contraction response to carbachol ([4]; carbachol 1 μM, once daily dosing for 2 weeks): significantly reduced | bladder afferent response to carbachol ([4]; carbachol 1 μM, once daily oral gavage for 2 weeks, p≤0.001): significantly reduced | bladder contraction response to αβMe-ATP ([4]; αβMe-ATP 30 μM, once daily dosing for 2 weeks): significantly reduced | bladder afferent response to αβMe-ATP ([4]; αβMe-ATP 30 μM, once daily oral gavage for 2 weeks, p≤0.001): significantly reduced

From patent US20220202725A1, “Modified or Targeted Release Formulations of Linaclotide” (Ironwood Pharmaceuticals, Inc., priority 2015, published 2022)
